Patent US20220177484A1, “MACROCYCLES WITH ANTIOXIDANT AND NEUROPROTECTIVE ACTIVITIES” (INSTITUTO BIOMAR, S.A, priority 2019, published 2022)

Experiments:
[1] = tested on: cortical primary neurons (from C57BL6/J mice); test: Caspase-3 activity (neuronal apoptosis) after excitotoxic NMDA stimulus; type: cell-based; settings: 100 μM NMDA 10 min, then 24 h with compound 0.1, 1, 5 μM (FIG. 6)
Method: (§1) For NMDA receptors activation, neurons at 8 days in vitro were incubated with 100 μM NMDA for 10 minutes. Neurons were then washed and further incubated for 24 hours in culture medium with DMSO only (DMSO empty bar), DMSO and NMDA (DMSO filled bar) and with increasing quantities of GKK1032C, GKK1032, Pyrrocidine B, CL0661, CL0665, CL0667 and CL0670. Concentrations of 0.1 μM, 1 μM, 5 μM. *: pvalue <0.05 vs. DMSO+NMDA (student's test).
(§2) Experiments were performed in […] cortical primary neurons, obtained as was previously described (Herrero-Mendez A. et al., Nat. Cell. Biol. 11:747-752, 2009). After 7 or 8 days in B27-MAO culture, neurons (from C57BL6/J mice) were incubated in the presence of N-methyl-D-aspartate (NMDA, a H2O2 production promoter; 100 μM) for 10 minutes, followed by a PBS washing step and submitted to a 24-hour B27 incubation step in the absence (DMSO) or presence of increasing amounts of GKK1032C, GKK1032, Pyrrocidine B, Pyrrocidine A, CL0661, CL0665, CL0667 and CL0670 (0.1 μM, 1 μM and 5 μM). B27-MAO stands for Neurobasal medium, supplemented with B27 supplement in the absence of antioxidants (minus antioxidants, MAO).
Neuronal apoptosis was determined by measuring caspase-3 activity (Veas-Perez de Tudela et al. Sci Rep 5:18180; doi:10.1038/srep18180 (2015).
(§3) The data are presented as the mean values±standard deviation of the mean from n=3.

[2] = tested on: cortical primary neurons (from C57BL6/J mice); test: H2O2 production in neurons after excitotoxic NMDA stimulus (Amplex Red); type: cell-based; settings: 100 μM NMDA 10 min, then compound 0.1, 1, 5 μM (FIG. 5)
Method: as §1, with “4” for “24”, “Pyrrocidine A, Pyrrocidine” for “Pyrrocidine”, “CL0661,” for “CL0661, CL0665,”, “p-value” for “pvalue”
as §2
The release of H2O2 was measured using the fluorescent method Amplex© Red hydrogen peroxide/peroxidase assay kit (Invitrogen, catalog number A22188) using a multiwell fluorescence reader (Varioskan, Thermo Scientific).
as §3

C57BL6/J male mice [3] = test: Rotarod test in 3-nitropropionic acid chemical model of Huntington's disease; type: in vivo; settings: group II injected with GKK1032C and CL0670, once-daily 150 mg/kg for 3 days, plus 3-nitropropionic acid 50 mg/kg twice daily; after two administrations (FIG. 15)
Method: Compound I and CL0670 injections were performed at day 1 and day 2. 3-nitropropionic acid injections were performed at days 1, 1.5, 2, 2.5, 3 and 3.5. The shown data points were obtained 2 hours after the injections. p-value<0.05 vs. control (student's test).
(§4) A chemical model of Huntington's disease was conducted to evaluate the capacity of compound I and CL0670 in protecting neurons. This is achieved by intraperitoneal injection of 3-nitropropionic acid which induces neuronal oxidative stress by inhibiting the succinate dehydrogenase enzyme.
(§5) 8-weeks old C57BL6/J male mice were divided into 4 groups.
(§6) Mice in group I (4 mice) were injected with GKK1032C and CL0670 (once-daily dose of 150 mg/kg for 3 days).
(§7) Mice in group II (5 mice) were injected with GKK1032C and CL0670 (once-daily dose of 150 mg/kg for 3 days) and with 3-nitropropionic acid (twice daily dose of 50 mg/kg for 3 days). In the case of group II, 3-nitropropionic acid was injected two hours and twelve hours after injection with GKK1032C and CL0670.
(§8) Mice in group III (5 mice) were injected with 3-nitropropionic acid (twice daily dose of 50 mg/kg for 3 days).
(§9) Mice in group IV (6 mice) were injected with vehicle only.
The mice were submitted to the rotarod test once-daily, 2 hours after the injections. […]

C57BL6/J male mice [4] = test: Rotarod test after Middle Cerebral Artery occlusion (stroke model); type: in vivo; settings: GKK1032C and CL0670 10 mg/kg intravenously (jugular vein) after 30 min occlusion; rotarod 24 hours after reanimation; untreated stroke impairment ˜75%
Source text: (§10) Middle Cerebral Artery occlusion involves temporarily or permanently restricting MCA blood flow to the cortex and striatum. The cerebral ischemic model of stroke is commonly used to assess ischemic injury in the brain. Occlusion of the middle cerebral artery (MCA) leads to a reduction of cerebral blood flow in both the striatum and the cortex. It is a highly reproducible model that results in brain damages similar to those occurring in human stroke.
(§11) Compounds GKK1032C and CL0670 were administered intravenously at a dose of 10 mg/kg. 11-week old C57BL6/J male mice were divided into 3 groups of 7 mice each: mice submitted to Middle Cerebral Artery occlusion (ischemia), mice submitted to Middle Cerebral Artery occlusion and administration of GKK1032C and CL0670.
(§12) All mice were firstly trained in the rotarod for 3 consecutive days. After this period, the mice were put to sleep with sevoflurane and submitted to surgery. Occlusion was performed by maintain the surgical filament occluding the middle cerebral artery for 30 minutes. Once removed, GKK1032C and CL0670 were injected at the jugular vein. 24 hours after reanimation, the animals were submitted to the rotarod test.

C57BL6/J male mice [5] = test: Stroke size after Middle Cerebral Artery occlusion (tetrazolium chloride); type: in vivo; settings: for protection of the stroke volume caused by the Middle Cerebral Artery occlusion: GKK1032C and CL0670 10 mg/kg intravenously (FIG. 19); for percentage averaged stroke volume: mice treated with GKK1032C and CL0670 10 mg/kg intravenously after MCA occlusion, untreated ischemia ˜48%
Source text: FIG. 19 is the graphical representation of the volume of the cerebral stroke of mice submitted to Middle Cerebral Artery occlusion effect (empty bar) and of mice submitted to Middle Cerebral Artery occlusion and administration of Compound I and CL0670 (solid bar). *: p-value<0.05 vs. ischemia (student's test).
as §10, §11, §12
To compare the neuroprotective effect caused by GKK1032C and CL0670 to the motor coordination of mice and the cerebral damage caused by the chirurgical procedure, the animals were sacrificed, and the stroke size measured by visual inspection after treatment with tetrazolium chloride. […] The data confirms that GKK1032C and CL0670 are excellent neuroprotector agents against stroke.

C57BL6/J male mice [6] = test: Open field test in 3-nitropropionic acid chemical model of Huntington's disease; type: in vivo; settings: mice injected with GKK1032C and CL0670, once-daily 150 mg/kg (FIG. 16)
Method: GKK1032C and CL0670 injections were performed at day 1, day 2 and day 3. 3-nitropropionic acid injections were performed at days 1, 1.5, 2, 2.5, 3 and 3.5. The shown data points were obtained 4 hours after the injections. p-value<0.05 vs. control (student's test).
as §4, §5, §6, §7, §8, §9

Row | Structure (SMILES) | neuronal apoptosis (caspase-3 activity) after NMDA [1] | H2O2 production in neuron cells after NMDA [2] | motor discoordination (rotarod) induced by 3-nitropropionic acid (C57BL6/J male mice [3]) | recovery of motor coordination (rotarod) of mice with stroke (C57BL6/J male mice [4]) [%] | protection of the stroke volume caused by the Middle Cerebral Artery occlusion (C57BL6/J male mice [5]) | percentage averaged stroke volume (C57BL6/J male mice [5]) [%] | number of line crossings (open field), 3-nitropropionic acid model (C57BL6/J male mice [6]) | time spent in central square of the arena (open field), 3-nitropropionic acid model (C57BL6/J male mice [6])
1 | C=CC1(C)C=C(C)C2C3C(Oc4ccc(cc4)CC4C(=O)NC(O)C4C(=O)C31)C1C(C)CC(C)CC21C (stereo not shown) [CL0670] | effective in protecting neuron cells against apoptosis | successful in preventing H2O2 from being produced | prevent partially | ~17 | roughly 18% | 39.5 | increased | increased
2 | C=CC1(C)C=C(C)C2C3C(Oc4ccc(cc4)CC4(O)NC(=O)C5(OC45)C(=O)C31)C1C(C)CC(C)CC21C (stereo not shown) [Compound I] | effective in protecting neuron cells against apoptosis | successful in preventing H2O2 from being produced | prevent partially | ~17 | roughly 18% | 39.5 | increased | increased
